“And” between values parts separate entries of the source, which are not always exact repeats. Equal entries are not always repeated. Where two headings read alike, the source gives them in different places.
Assays:
Type in all cases: biochemical
[1] = molecular target: T1, c1 (human aa 1–158 and mouse aa 159–288) (Homo sapiens, UniProt Q96AD5, L232M/Q250R/R257Q); test: TAG hydrolase assay, chimeric ATGL variants; conditions: chimeric variant c1
T1 construct: c1 (human aa 1–158 and mouse aa 159–288); host or cells: Expi293 cells, crude lysate
T1 sequence (Q96AD5 with tags, fused parts or gaps L232M/Q250R/R257Q): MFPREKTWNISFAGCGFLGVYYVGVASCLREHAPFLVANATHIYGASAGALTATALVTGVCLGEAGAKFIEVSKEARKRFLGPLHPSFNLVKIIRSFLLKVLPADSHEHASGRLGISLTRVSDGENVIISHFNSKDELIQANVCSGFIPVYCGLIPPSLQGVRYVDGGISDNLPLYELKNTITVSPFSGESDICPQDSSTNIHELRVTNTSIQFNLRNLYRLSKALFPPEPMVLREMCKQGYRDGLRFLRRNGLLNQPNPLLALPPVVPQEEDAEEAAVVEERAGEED
Excerpt: (§1) Since experimental three-dimensional (3D) structures for ATGL are currently not available, we utilized chimeric variants of mouse and human ATGL for the identification of binding sites. The constructs c1–c9 (Figure 5a) comprised the N-terminal […] of ATGL, which are sufficient to retain enzymatic activity.[50] In variants c1 and c2, exchange of the N-terminal 158 aa between human and mouse ATGL switched inhibitor reactivity.
(§2) Figure 5 Analysis of chimeric proteins comprising human and mouse ATGL. (a) Schematic view of the minimal active domain of wild-type and chimeric ATGL variants (c1–c9). Nonidentical aa are indicated in blue and red for mouse and human ATGL, respectively. ATGL variants were expressed in Expi293 cells and TAG hydrolase activity was determined in cell lysates in the presence or absence of NG-497 (10 μM) and Atglistatin (10 μM), respectively. Inhibition of ATGL variants by respective inhibitors (tick mark) and lack of inhibition (cross) is indicated at the right edge. The expression of all ATGL variants was confirmed by Western blotting analysis (Figure S6). (b) Dose-dependent inhibition of human ATGL (aa 1–288) and c1 (human aa 1–158 and mouse aa 159–288) by NG-497. (c) Dose-dependent inhibition of mouse ATGL (aa 1–288) and c2 (mouse aa 1–158 and human aa 159–288) by Ai. IC50 values are shown in the insets. Data are presented as relative inhibition of respective DMSO controls and are indicated as mean ± SD. (d) 3D homology model of the minimal active domain of mouse ATGL (M1–L254) depicted as a cartoon. Residues 1–178 are in blue, and residues 179–254 are in gray. S47 and D166 comprising the active site are represented as green sticks. T101, C106, R109, N111, and S133 are colored in orange, A60, N68, I69, T93, C97, and T146 are colored in magenta. TEXT PRINTED IN THE PICTURE: (b) NG-497: IC50 [μM] (human): 1.3±0.1; IC50 [μM] (c1): 1.3±0.1 | (b) Ai: IC50 [μM] (human): n.det.; IC50 [μM] (c1): n.det. | (c) NG-497: IC50 [μM] (mouse): n.det.; IC50 [μM] (c2): n.det. | (c) Ai: IC50 [μM] (mouse): 2.5±0.3; IC50 [μM] (c2): 2.4±0.1 […]
(§3) Experimental details, materials, and methods
(§4) Expression of recombinant ATGL constructs and preparation of cell lysates. Expi293 cells were cultivated in Expi293 Expression Medium (GIBCO, Thermo Fisher Scientific, Waltham, USA) at standard conditions (37°C, 5% CO2, 95% humidified atmosphere, 125 rpm). DNA constructs containing ATGL from different species and chimeric ATGL variants in pcDNA3.1(+)myc-His C Vector were obtained from BioCat GmbH (Heidelberg, Germany). […] Protein concentrations were determined using Bio-Rad protein assay (Bio-Rad 785, Bio-Rad Laboratories, Munich, Germany) using BSA as standard. […]

[2] = molecular target: T2, c2 (mouse aa 1–158 and human aa 159–288) (Mus musculus, UniProt Q8BJ56, M232L/Q257R/R250Q); test: TAG hydrolase assay, chimeric ATGL variants; conditions: chimeric variant c2
T2 construct: host or cells: Expi293 cells, cell lysate
T2 sequence (Q8BJ56 with tags, fused parts or gaps M232L/R250Q/Q257R): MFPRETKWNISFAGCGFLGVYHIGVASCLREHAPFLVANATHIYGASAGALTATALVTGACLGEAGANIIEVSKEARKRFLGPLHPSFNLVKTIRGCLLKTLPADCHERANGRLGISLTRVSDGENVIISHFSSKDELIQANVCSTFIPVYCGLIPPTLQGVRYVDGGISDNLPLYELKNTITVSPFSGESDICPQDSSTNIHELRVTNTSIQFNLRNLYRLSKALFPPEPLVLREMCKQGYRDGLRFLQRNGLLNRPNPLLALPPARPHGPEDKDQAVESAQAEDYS
Excerpt: as §1, §2, §3, §4

mouse ATGL (aa 1–288) = molecular target: T3, mouse ATGL (aa 1–288) (Mus musculus, UniProt Q8BJ56); test: TAG hydrolase assay, wild-type and chimeric ATGL variants; conditions: wild-type mouse ATGL (aa 1–288)
T3 construct: mouse ATGL (aa 1–288); host or cells: Expi293 cells, crude lysate
T3 sequence (Q8BJ56 1-288): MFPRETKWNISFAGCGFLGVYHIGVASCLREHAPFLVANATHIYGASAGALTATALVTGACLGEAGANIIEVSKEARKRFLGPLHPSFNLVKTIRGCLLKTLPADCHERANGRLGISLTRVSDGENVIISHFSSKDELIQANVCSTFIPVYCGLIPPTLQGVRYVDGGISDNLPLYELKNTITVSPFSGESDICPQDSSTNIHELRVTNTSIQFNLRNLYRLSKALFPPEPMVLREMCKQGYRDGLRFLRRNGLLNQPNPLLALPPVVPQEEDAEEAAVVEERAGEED
Excerpt: as §1
Figure 5 Analysis of chimeric proteins comprising human and mouse ATGL. (a) Schematic view of the minimal active domain of wild-type and chimeric ATGL variants (c1–c9). Nonidentical aa are indicated in blue and red for mouse and human ATGL, respectively. ATGL variants were expressed in Expi293 cells and TAG hydrolase activity was determined in cell lysates in the presence or absence of NG-497 (10 μM) and Atglistatin (10 μM), respectively. Inhibition of ATGL variants by respective inhibitors (tick mark) and lack of inhibition (cross) is indicated at the right edge. The expression of all ATGL variants was confirmed by Western blotting analysis (Figure S6). […]
Expression of recombinant ATGL constructs and preparation of cell lysates. […] Protein concentrations were determined using Bio-Rad protein assay (Bio-Rad 785, Bio-Rad Laboratories, Munich, Germany) using BSA as standard. […]

mouse ATGL I69F = molecular target: T4, mouse ATGL I69F (Mus musculus, UniProt Q8BJ56, I69F); test: TAG hydrolase assay, humanized mouse ATGL variants; conditions: variant I69F, NG-497 (10 μM) or Atglistatin (10 μM)
T4 construct: host or cells: Expi293 cells, cell lysate
T4 sequence (Q8BJ56 whole entry I69F): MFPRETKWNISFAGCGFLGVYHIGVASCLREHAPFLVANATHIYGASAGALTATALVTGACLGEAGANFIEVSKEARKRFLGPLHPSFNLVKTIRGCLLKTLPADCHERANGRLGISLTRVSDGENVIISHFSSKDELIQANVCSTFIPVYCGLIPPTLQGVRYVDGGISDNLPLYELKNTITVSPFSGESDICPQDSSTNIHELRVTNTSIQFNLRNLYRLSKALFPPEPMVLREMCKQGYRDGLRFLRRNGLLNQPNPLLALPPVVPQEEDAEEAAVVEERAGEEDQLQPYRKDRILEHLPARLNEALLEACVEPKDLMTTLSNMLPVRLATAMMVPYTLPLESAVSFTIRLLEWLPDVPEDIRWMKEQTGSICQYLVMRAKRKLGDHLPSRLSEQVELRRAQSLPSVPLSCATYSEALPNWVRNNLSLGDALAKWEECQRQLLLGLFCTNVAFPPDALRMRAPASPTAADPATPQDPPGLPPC
Experimental: as §2
The region between aa 60 and 146 of human and mouse ATGL comprises 12 nonidentical aa. We generated 3D homology models for the minimal active domain of mouse ATGL to obtain more detailed insight into the topology of the relevant region (Figure 5d). Based on this model, aa T101, C106, R109, N111, and S133 locate at peripheral (loop) regions (indicated in orange, Figure 5d). […] For all other nonidentical aa (indicated in magenta, Figure 5d), we generated variants with single aa substitutions. The humanized variants A60V, N68K, T93I, and C97F were inactivated by Ai but not NG-497 (Figure 5a).
as §3
Expression of recombinant ATGL constructs and preparation of cell lysates. Expi293 cells were cultivated in Expi293 Expression Medium (GIBCO, Thermo Fisher Scientific, Waltham, USA) at standard conditions (37°C, 5% CO2, 95% humidified atmosphere, 125 rpm). DNA constructs containing ATGL from different species and chimeric ATGL variants in pcDNA3.1(+)myc-His C Vector were obtained from BioCat GmbH (Heidelberg, Germany). Cells were transfected with ExpiFectamine293 Transfection Kit (GIBCO) in Opti-Mem reduced serum medium (GIBCO) according to the manufacturer’s instructions. After 48 h, cells were harvested by centrifugation and washed three times with PBS. Cells were disrupted in buffer A (0.25 M sucrose, 1 mM EDTA, 1 mM dithiothreitol, 20µg/ml leupeptin, 2 µg/ml antipain, 1 µg/ml pepstatin, pH 7.0) by sonication (Virsonic 475, Virtis, Gardiner, USA). Nuclei and debris were removed by centrifugation at 1,000 g and 4°C for 10 min. Protein concentrations were determined using Bio-Rad protein assay (Bio-Rad 785, Bio-Rad Laboratories, Munich, Germany) using BSA as standard.
Expression and purification of mouse CGI-58. CGI-58 was expressed and purified as described 1. In brief, the coding sequence of mouse Cgi-58 was cloned into pHis-Sumo and co-transformed with the plasmid pTf16 expressing the chaperone Tig into E. coli BL21(DE3). Cells were cultured overnight at 37°C and 180 rpm in the presence of 40 µg/ml kanamycin and 34 µg/ml chloramphenicol. Thereafter, cells were transferred into fresh LB medium, grown until OD600 of 0.6, and expression was induced by the addition of 0.5 mM IPTG. After overnight incubation at 30°C, cells were harvested at 4,500 x g and 4°C for 20 min, […]

Row | SMILES | IC50 [1] | IC50 ([2]; read-out: IC50) | IC50 (mouse ATGL (aa 1–288); read-out: IC50) | inhibition of TAG hydrolase activity (mouse ATGL I69F) | IC50 ([1]; read-out: IC50) [nM] | IC50 [2] | IC50 (mouse ATGL (aa 1–288))
1 | CN(C)C(=O)Nc1cccc(-c2ccc(N(C)C)cc2)c1 [Atglistatin, reference compound] | ineffective | ~2500 nM and 2400 nM | ~2500 nM and 2500 nM | neither inhibited | – | – | –
2 | CCOc1ccc(-c2cc(OC)cc(C(=O)OC(C)C)n2)cc1 [NG-497] | – | – | – | neither inhibited | 1300 | ineffective | ineffective
